Experimental data from patent publication US20240400555A1 (Initial Therapeutics, Inc., priority 2023, published 2024).
pIC50: −log10 of the molar value.

Tested on: MV-4-11 cells
Assay: Cell Viability Assay in MV-4-11 Cells
Format: cell-based
Conditions: Homo sapiens, MV4-11, 72 h
Outline: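 MV-4-11 cells at 7,000/well in IMDM with 10% FBS, exposed to compound for 72 h. Viability by CellTiter-Glo luminescence, normalized to DMSO as 100%, fitted with a four-parameter curve.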

| Compound | pIC50 |
| --- | --- |
| NC(=O)/C=C/c1cccc2ccnc(N(C(=O)c3ccc(-n4nnc5cccnc54)cc3F)[C@@H]3CCCNC3)c12 [Example 320, N-[8-[(E)-3-amino-3-oxo-prop-1-enyl]-1-isoquinolyl]-2-fluoro-N-[(3R)-3-piperidyl]-4-(triazolo[4.5-b]pyridin-3-yl)benzamide] | 8.25 |
| Cc1cccc2ccnc(N(C(=O)c3ccc(C#CC(C)(C)O)cc3F)[C@@H]3CCCNC3)c12 [Example 592, (R)-2-fluoro-4-(3-hydroxy-3-methylbut-1-yn-1-yl)-N-(8-methylisoquinolin-1-yl)-N-(piperidin-3-yl)benzamide] | 6.44 |

Same assay, conditions: Homo sapiens, MV4-11, 72 h, MV-4-11 cells, 72 h, Cell-Titer Glo; read-out: IC50

| Compound | pIC50 |
| --- | --- |
| Cc1nnc(-c2ccc(C(=O)N(c3nccc4c(Cl)ccc(C)c34)[C@@H]3CCCNC3)nc2)s1 [Example 857, N-(5-chloro-8-methyl-1-isoquinolyl)-5-(5-methyl-1,3,4-thiadiazol-2-yl)-N-[(3R)-3-piperidyl]pyridine-2-carboxamide] | 6.32 |
| Cc1cc(Cl)cc2ccnc(N(C(=O)c3ccc(-c4cn(C)nn4)cc3)[C@@H]3CCCNC3)c12 [Example 802, (R)—N-(6-chloro-8-methylisoquinolin-1-yl)-4-(1-methyl-1H-1,2,3-triazol-4-yl)-N-(piperidin-3-yl)benzamide] | 7.42 |
| Cc1cccc2ccnc(N(C(=O)c3ccc(-c4nnc(CCC#N)s4)cc3)[C@@H]3CCCNC3)c12 [Example 880, 4-[5-(2-cyanoethyl)-1,3,4-thiadiazol-2-yl]-N-(8-methyl-1-isoquinolyl)-N-[(3R)-3-piperidyl]benzamide] | 6.74 |
| O=C(c1ccc(-n2nnc3cccnc32)cc1F)N(c1nccc2sc(-c3csc(CO)n3)cc12)[C@@H]1CCCNC1 [Example 427, 2-fluoro-N-[2-[2-(hydroxymethyl)thiazol-4-yl]thieno[3,2-c]pyridin-4-yl]-N-[(3R)-3-piperidyl]-4-(triazolo[4,5-b]pyridin-3-yl)benzamide] | 6.68 |
| Cn1cc(-c2ccc(C(=O)N(c3nccc4sc(-c5cnccn5)cc34)[C@@H]3CCCNC3)c(F)c2)nn1 [Example 482] | 6.06 |
| CCc1nnc(-c2ccc(C(=O)N(c3nccc4cc(F)cc(C)c34)[C@@H]3CCCNC3)c(F)c2)s1 [Example 832, (R)-4-(5-ethyl-1,3,4-thiadiazol-2-yl)-2-fluoro-N-(6-fluoro-8-methylisoquinolin-1-yl)-N-(piperidin-3-yl)benzamide] | 6.92 |
| Cc1nc(-c2ccc(C(=O)N(c3nccc4cccc(C)c34)[C@@H]3CCCNC3)c(F)c2)c(N)[nH]1 [Example 389, 4-(5-amino-2-methyl-1H-imidazol-4-yl)-2-fluoro-N-(8-methyl-1-isoquinolyl)-N-[(3R)-3-piperidyl]benzamide] | < 5.00 |
| O=C(c1ccc(-n2nnc3cccnc32)cc1F)N(c1nccc2sc(-c3cc[nH]c(=O)c3)cc12)[C@@H]1CCCNC1 [Example 459, 2-fluoro-N-[2-(2-oxo-1H-pyridin-4-yl)thieno[3,2-c]pyridin-4-yl]-N-[(3R)-3-piperidyl]-4-(triazolo[4,5-b]pyridin-3-yl)benzamide] | 6.37 |
| O=C(c1ccc(Nc2ncccn2)cc1F)N(c1nccc2cc(-c3cccnc3)ccc12)[C@@H]1CCCNC1 [Example 397, (R)-2-fluoro-N-(piperidin-3-yl)-N-(6-(pyridin-3-yl)isoquinolin-1-yl)-4-(pyrimidin-2-ylamino)benzamide] | 6.34 |
| Cc1cc(F)cc2ccnc(N(C(=O)c3ccc(-c4nnc(O)s4)cc3F)[C@@H]3CCCNC3)c12 [Example 650, 2-fluoro-N-(6-fluoro-8-methyl-1-isoquinolyl)-4-(5-hydroxy-1,3,4-thiadiazol-2-yl)-N-[(3R)-3-piperidyl]benzamide] | 5.44 |
| Cc1cccc2ccnc(N(C(=O)c3ccc(Nc4nccc(N(C)CCO)n4)cc3F)[C@@H]3CCCNC3)c12 [Example 743, (R)-2-fluoro-4-((4-((2-hydroxyethyl)(methyl)amino)pyrimidin-2-yl)amino)-N-(8-methylisoquinolin-1-yl)-N-(piperidin-3-yl)benzamide] | 6.80 |
| O=C(O)/C=C/c1cc2c(N(C(=O)c3ccc(-n4nnc5cccnc54)cc3F)[C@@H]3CCCNC3)nccc2s1 [Example 500, (E)-3-[4-[[2-fluoro-4-(triazolo[4,5-b]pyridin-3-yl)benzoyl]-[(3R)-3-piperidyl]amino]thieno[3,2-c]pyridin-2-yl]prop-2-enoic acid] | < 5.00 |
| CNC(=O)/C=C/c1cc2c(N(C(=O)c3ccc(-n4nnc5cccnc54)cc3F)[C@@H]3CCCNC3)nccc2s1 [Example 525, 2-fluoro-N-[2-[(E)-3-(methylamino)-3-oxo-prop-1-enyl]thieno[3,2-c]pyridin-4-yl]-N-[(3R)-3-piperidyl]-4-(triazolo[4,5-b]pyridin-3-yl)benzamide] | 6.10 |
| Cc1cccc2ccnc(N(C(=O)c3ccc(Nc4ncc5ccccc5n4)cc3F)[C@@H]3CCCNC3)c12 [Example 824, (R)-2-fluoro-N-(8-methylisoquinolin-1-yl)-N-(piperidin-3-yl)-4-(quinazolin-2-ylamino)benzamide] | 6.89 |
| CCn1cc(-c2cc3c(N(C(=O)c4ccc(-n5nnc6cccnc65)cc4F)[C@@H]4CCCNC4)nccc3s2)cn1 [Example 436, N-[2-(1-ethylpyrazol-4-yl)thieno[3,2-c]pyridin-4-yl]-2-fluoro-N-[(3R)-3-piperidyl]-4-(triazolo[4,5-b]pyridin-3-yl)benzamide] | 6.57 |
| Cn1cc(-c2ccc(C(=O)N(c3nccc4sc(-c5ccnc(N)n5)cc34)[C@@H]3CCCNC3)c(F)c2)nn1 [Example 484, N-[2-(2-aminopyrimidin-4-yl)thieno[3,2-c]pyridin-4-yl]-2-fluoro-4-(1-methyltriazol-4-yl)-N-[(3R)-3-piperidyl]benzamide] | 6.03 |
| O=C(c1ccc(-n2nnc3cccnc32)cc1F)N(c1nccc2sc(-c3ccc4[nH]ncc4c3)cc12)[C@@H]1CCCNC1 [Example 557, 2-fluoro-N-[2-(1H-indazol-5-yl)thieno[3,2-c]pyridin-4-yl]-N-[(3R)-3-piperidyl]-4-(triazolo[4,5-b]pyridin-3-yl)benzamide] | 6.89 |
| O=C(NCc1ccccc1)c1ccc2c(N(C(=O)c3ccc(-n4nnc5cccnc54)cc3F)[C@@H]3CCCNC3)nccc2c1 [Example 373, (R)-1-(4-(3H-[1,2,3]triazolo[4,5-b]pyridin-3-yl)-2-fluoro-N-(piperidin-3-yl)benzamido)-N-benzylisoquinoline-6-carboxamide] | 6.74 |
| Cn1cc(-c2ccc(C(=O)N(c3nccc4cc(-c5cccnc5)ccc34)[C@@H]3CCCNC3)c(F)c2)nn1 [Example 370, (R)-2-fluoro-4-(1-methyl-1H-1,2,3-triazol-4-yl)-N-(piperidin-3-yl)-N-(6-(pyridin-3-yl)isoquinolin-1-yl)benzamide] | 6.74 |
| [2H]C([2H])([2H])c1nnc(-c2ccc(C(=O)N(c3nccc4cc(OC)cc(C)c34)[C@@H]3CCCNC3)cc2)s1 [Example 908, N-(6-methoxy-8-methyl-1-isoquinolyl)-N-[(3R)-3-piperidyl]-4-[5-(trideuteriomethyl)-1,3,4-thiadiazol-2-yl]benzamide] | 7.11 |
| Cc1cccc2ccnc(N(C(=O)c3ccc(Nc4nccc(N5CCC(O)CC5)n4)cc3F)[C@@H]3CCCNC3)c12 [Example 717, (R)-2-fluoro-4-((4-(4-hydroxypiperidin-1-yl)pyrimidin-2-yl)amino)-N-(8-methylisoquinolin-1-yl)-N-(piperidin-3-yl)benzamide] | 7.52 |
| Cn1cc(-c2ccc(C(=O)N(c3nccc4sc(C(=O)c5cccnc5)cc34)[C@@H]3CCCNC3)c(F)c2)nn1 [Example 563] | 6.47 |
| COc1ccc(-c2cc3c(N(C(=O)c4ccc(-n5nnc6cccnc65)cc4F)[C@@H]4CCCNC4)nccc3s2)cc1 [Example 378, 2-fluoro-N-[2-(4-methoxyphenyl)thieno[3,2-c]pyridin-4-yl]-N-[(3R)-3-piperidyl]-4-(triazolo[4,5-b]pyridin-3-yl)benzamide] | 6.72 |
| COc1ccc(C)c2c(N(C(=O)c3ccc(-c4nnc(C)s4)cn3)[C@@H]3CCCNC3)nccc12 [Example 870, N-(5-methoxy-8-methyl-1-isoquinolyl)-5-(5-methyl-1,3,4-thiadiazol-2-yl)-N-[(3R)-3-piperidyl]pyridine-2-carboxamide] | 5.72 |
| O=C(O)c1ccc(-c2cc3c(N(C(=O)c4ccc(-n5nnc6cccnc65)cc4F)[C@@H]4CCCNC4)nccc3s2)cc1 [Example 379, 4-[4-[[2-fluoro-4-(triazolo[4,5-b]pyridin-3-yl)benzoyl]-[(3R)-3-piperidyl]amino]thieno[3,2-c]pyridin-2-yl]benzoic acid] | < 5.00 |
| Cc1cc(-n2nnc3cccnc32)ccc1C(=O)N(c1nccc2cccc(C)c12)[C@@H]1CCCNC1 [Example 306, (R)-4-(3H-[1,2,3]triazolo[4,5-b]pyridin-3-yl)-2-methyl-N-(8-methylisoquinolin-1-yl)-N-(piperidin-3-yl)benzamide] | 7.24 |
| Cc1cc(Cl)cc2ccnc(N(C(=O)c3ccc(-c4cnn(C)c4C)cc3F)[C@@H]3CCCNC3)c12 [Example 814, (R)—N-(6-chloro-8-methylisoquinolin-1-yl)-4-(1,5-dimethyl-1H-pyrazol-4-yl)-2-fluoro-N-(piperidin-3-yl)benzamide] | 6.37 |
| Cn1cc(-c2ccc(C(=O)N(c3nccc4cc(F)ccc34)[C@@H]3CCCNC3)nc2)nn1 [Example 803, (R)—N-(6-fluoroisoquinolin-1-yl)-5-(1-methyl-1H-1,2,3-triazol-4-yl)-N-(piperidin-3-yl)picolinamide] | 6.07 |
| Cn1cc(-c2ccc(C(=O)N(c3nccc4sc(-c5cccc(C(=O)NCCO)c5)cc34)[C@@H]3CCCNC3)c(F)c2)nn1 [Example 542, 2-fluoro-N-[2-[3-(2-hydroxyethylcarbamoyl)phenyl]thieno[3,2-c]pyridin-4-yl]-4-(1-methyltriazol-4-yl)-N-[(3R)-3-piperidyl]benzamide] | 5.20 |
